The values that follow come from US20200121627A1, “COMPOSITION COMPRISING AZELAIC ACID OR AS ACTIVE INGREDIENTS FOR MUSCLE STRENGTHENING, DEVELOPMENT, DIFFERENTIATION, REGENERATION OR INHIBITING MUSCLE ATROPHY” (priority 2018, published 2020).

The test system of series [1] is Mouse myoblast cell line (C2C12 cells). The experiment in a line: Myotube length in differentiating mouse myoblasts (muscle-potentiating efficacy), Wright-Giemsa staining. The class given is cell-based. The settings on record: 100 μM azelaic acid for two days from the day differentiation began, vs DMSO control. As to the method:
(§1) Mouse myoblast cell line (C2C12 cells) was purchased from ATCC (Manassas, Va., USA) and used. The purchased cell line was incubated in an incubator at 37° C., 5% CO2 using 10% fetal bovine serum medium (Gibco-BRL) and used for experiments. […] In order to identify muscle-potentiating efficacy, treatment with 100 μM azelaic acid (CAS Number 123-99-9, Sigma) was performed for two days from the day when differentiation began, and a control was treated with 100 μM dimethyl sulfoxide (DMSO; Sigma). […] Sigma) and 100 μM azelaic acid (CAS Number 123-99-9, Sigma) was performed for two days from the 4th day of differentiation. The cells were washed twice with phosphate buffered saline (PBS), and then fixed for 10 minutes with 100% methanol. […] Co., Ltd., Seoul, South Korea) that specifically stains myotubes. Stained myotubes were photographed at ×40 magnification using a fluorescence microscope (IX 71, Olympus) and analyzed using Image J software (USA). Six sections of each well were randomly selected and micrographed. Lengths of at least 100 myotubes from each well were analyzed (3 repetitions/group).

A further series deals with myostatin. The experiment in a line: Real-time PCR mRNA expression in mouse myoblasts. Conditions: azelaic acid treatment of dexamethasone-treated cells, vs Dexa. It is filed as cell-based. The procedure:
(§2) Mouse myoblast cell line (C2C12 cells) was purchased from ATCC (Manassas, Va., USA) and used. The purchased cell line was incubated in an incubator at 37° C., 5% CO2 using 10% fetal bovine serum medium (Gibco-BRL) and used for experiments. When the cell line reached a confluency of about 80%, the cells were differentiated into myotubes using 2% horse serum medium (Gibco-BRL). In order to identify muscle-potentiating efficacy, treatment with 100 μM azelaic acid (CAS Number 123-99-9, Sigma) was performed for two days from the day when differentiation began, and a control was treated with 100 μM dimethyl sulfoxide (DMSO; Sigma). In order to identify muscle loss-inhibitory efficacy, combined treatment with 50 μM dexamethasone (dexa; Sigma) and 100 μM azelaic acid (CAS Number 123-99-9, Sigma) was performed for two days from the 4th day of differentiation.
(§3) 334 μl of Trizol solution was added per 1×10^7 cells of mouse myoblasts, and grinding was performed. Then, the resultant was centrifuged at 4° C. and 12,000×g for 10 minutes. The supernatant was transferred to a new tube. Then, 67 μl of chloroform was added thereto and vortexing was performed. Again, the supernatant was transferred to a new tube, and isopropanol was added so that a ratio of the supernatant to isopropanol was 1:1. After performing vigorous shaking 10 times, the tube was allowed to stand at room temperature for 15 minutes, and centrifuged at 12,000×g and 4° C. for 10 minutes.

The test system of the next series is MAFbx/Atrogin1. Briefly: Real-time PCR mRNA expression in mouse myoblasts. It is filed as cell-based. Conditions: azelaic acid treatment of dexamethasone-treated cells, vs Dexa. As to the method: as §2, §3
On the technique in general: In qPCR the cycle at which signal appears reflects the starting amount.

For a further series, the system named is IGF1. The experiment in a line: Real-time PCR mRNA expression in mouse myoblasts. The class given is cell-based. Conditions: azelaic acid treatment of dexamethasone-treated cells, vs Dexa. As to the method: as §2, §3
The test system of another series is MuRF1. The experiment in a line: Real-time PCR mRNA expression in mouse myoblasts. It is filed as cell-based. Conditions: azelaic acid treatment of dexamethasone-treated cells, vs Dexa. The procedure:
as §2, §3

Series [2] deals with interleukin-1β, interleukin-6, and TNF-α. Conditions: human epidermal cells treated with 20 mM azelaic acid; cited from earlier work.
For series [3] the following is noted: ethanol and water; cited from earlier work.
The next series concerns p-4E-BP1. Briefly: Western blotting in mouse myoblasts. It is filed as cell-based. Conditions: azelaic acid treatment of dexamethasone-treated cells, vs Dexa. As to the method:
as §2, with “In order to identify muscle loss-inhibitory efficacy, combined treatment with 50 μM dexamethasone (dexa; Sigma) and 100 μM azelaic acid (CAS Number 123-99-9, Sigma) was performed for two days from the 4th day of differentiation.” left out
(§4) In order to perform Western blotting in cells, to each well from which the medium was removed was added a lysis buffer that contains 500 μL of 100 mM Tris-HCl, pH 7.4, 5 mM EDTA, 50 mM sodium pyrophosphate, 50 mM NaF, 100 mM orthovanadate, 1% Triton X-100, 1 mM phenylmethanesulfonyl fluoride, 2 μg/mL aprotinin, 1 μg/mL pepstatin A, and 1 μg/mL leupeptin, and the cells were lysed to obtain a lysate. […] Then, the middle layer was taken and proteins were quantified according to the Bradford method (Bio-Rad). 40 μg of the quantified proteins were electrophoresed on SDS polyacrylamide gel and then transferred to nitrocellulose membranes (Amersham, Buckinghamshire, UK).
In general terms: Immunoblotting shows a protein as a band on a membrane.

The test system of a further series is p-p70S6K1. The experiment in a line: Western blotting in mouse myoblasts. It is filed as cell-based. Conditions: azelaic acid treatment of dexamethasone-treated cells, vs Dexa. The procedure:
as §2, with “In order to identify muscle loss-inhibitory efficacy, combined treatment with 50 μM dexamethasone (dexa; Sigma) and 100 μM azelaic acid (CAS Number 123-99-9, Sigma) was performed for two days from the 4th day of differentiation.” left out
as §4

For series [4], the system named is nicotinamide adenine dinucleotide phosphate (NADP) oxidase. Conditions: cited from earlier work.
Another series deals with rats. The settings on record: oral administration; cited from earlier work.
The test system of series [5] is Mouse myoblast cell line (C2C12 cells). Briefly: Myotube length in dexamethasone-treated mouse myoblasts (muscle loss-inhibitory efficacy), Wright-Giemsa staining. It is filed as cell-based. Conditions: 100 μM azelaic acid combined with 50 μM dexamethasone for two days from the 4th day of differentiation. The procedure:
as §1

Series [6] deals with various strains of skin microorganisms. The settings on record: 0.5 mol/l (8.4% w/v) azelaic acid solution, 24 hours, all bacterial strains; cited from earlier work.

For the compound `O=C(O)CCCCCCCC(=O)O` [azelaic acid, nonanedioic acid], the “increase in myotube length” value in series [1] came out at 62%. In the series with myostatin, the “expression of myostatin gene” value is listed as “significantly decreased”. Also, in the series with MAFbx/Atrogin1, the “expression of MAFbx/Atrogin1 gene” value was “significantly decreased”. For the same compound, in the series with IGF1, the “expression of IGF1 gene” value is “significantly increased”. The “expression of MuRF1 gene” value in the series with MuRF1 was “significantly decreased”. Further, the “mRNA expression and protein secretion of interleukin-1β, interleukin-6, and TNF-α by UVB” value in [2] is reported as “inhibition”. Also, the solubility result in series [3] was “soluble”. The “amount of p-4E-BP1 protein” value with p-4E-BP1 was “significantly increased”. Moreover, in the series with p-p70S6K1, the “amount of p-p70S6K1 protein” value is “significantly increased”. Further, the “reaction of NADP oxidase (antioxidant effect)” value in [4] is “inhibiting”. The LD50 with rats is listed as 15,800 mg/kg. Also, in series [5], the “increase in the myotube length which has decreased due to dexamethasone” value stood at 62%. Further, in series [6], the “decreased viability of bacterial strains” value was “at least 40 fold”.
